“Also recorded” adds a separate entry of the source. Counter-ions that a name gives are not always drawn.
What was measured:
[1] = set-up: method as in Ru et al., 2014; conditions: obtained from TCMSP database; ref Ru et al., 2014; cited from earlier work
[2] = Pharmacokinetics and brain tissue distribution after gavage of GTS (UPLC-MS); format: in vivo, Babl/c mice; conditions: mice; for exposure in plasma and brain / detection in brain tissues / detection in plasma: after oral administration of GTS; for time at which concentration in brain peaked: gavage of GTS infusion (2.75 g crude drug/mL, 2 mL/kg), sampling 0.5, 2, 4, 6, 9 h
Method: Animal experiments: Babl/c mice weighing 18–22 g (6–8 weeks old) with equal numbers of males and females, were provided by the Experimental Animal Center of Southern Medical University. The mice were maintained at room temperature (20 ± 2) °C, humidity (60 ± 5)%, 12 h light cycles, and provided an ad libitum diet. Thirty mice were randomly divided into 0.5, 2, 4, 6 and 9 h groups, with 6 mice each. An infusion at concentration of 2.75 g of GTS crude drug/mL was obtained, and the drug was administered by gavage at a dose of 2 mL GTS infusion drug/kg. After 0.5, 2, 4, 6 and 9 h of administration, the plasma and brain tissues in the 0.5, 2, 4, 6 and 9 h groups were collected. The plasma and brain tissue samples were processed in accordance with biological sample processing procedures.
Establishment of UPLC-MS method: An LCMS-8050 liquid chromatography mass spectrometer (Shimadzu, Japan) was operated with a horizon C18 column (100 × 2.1 mm, 3 µm). The mobile phase was 0.1% formic acid in water (A) - acetonitrile (B), and the gradient elution was 0–8 min, 10%–50% B; 8–9 min, 50%–10% B; 9–11 min, 10% B. The column temperature was 30°C, the injection volume was 5 μL, and flow rate was 0.4 mL min^−1. The mass spectrometry conditions included HPLC-MS/MS in […] full-scan and sub-ion scanning modes, an electrospray ionization source (ESI), positive and negative ion mode detection, and nebulizing gas of nitrogen (N2). The zeroed gas flow rate was 3 L min^−1, desolventization temperature was 526°C, and DL temperature was 250°C. Then the parent ion, daughter ion, collision energy, and polarity of the above components were determined (Table 2).

SH-SY5Y cells = experiment: MTT detection of cell viability; format: cell-based, human; conditions: 48 h
Method: (§1) SH-SY5Y cells were inoculated into a 96-well plate. […] After 48 h of incubation at 6 wells per concentration, MTT was added for 4 h. Then incubation was stopped, the liquid was discarded, and dimethyl sulfoxide was added. After horizontal shakening for 5 min, the absorbance at 490 nm was measured using an enzyme-linked immunosorbent assay (Elisa) reader ([Yang et al., 2018]).

[3] = MTT detection of cell viability; format: cell-based, human; conditions: human, SH-SY5Y cells, 200 μmol ·L^−1, 48 h
Method: as §1
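Throughout, for BBB (blood–brain–barrier): unitless TCMSP predicted score with screening cut-off BBB at least 0.3.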

| Compound | BBB (blood–brain–barrier) [1] | OB% (oral bioavailability) [1] [%] | further results |
| --- | --- | --- | --- |
| COc1c2c(cc3oc(C)cc(=O)c13)OC(C(C)(C)O[C@@H]1O[C@H](CO)[C@@H](O)[C@H](O)[C@H]1O)C2 (stereo partly drawn) [5-O-Methylviscumaboloside] | 0.56 | 32.47 | exposure in plasma and brain [2]: exposed in the plasma and brain; time at which concentration in brain peaked [2]: 6 h |
| O=C(/C=C/c1ccc(O)c(O)c1)O[C@@H]1C[C@](O)(C(=O)O)C[C@@H](O)[C@H]1O [Chlorogenic acid] | 0.94 | 30.70 | exposure in plasma and brain [2]: exposed in the plasma and brain; also recorded: absorbed into the bloodstream and distributed to brain tissues |
| CC1(C)[C@@H](O[C@H]2O[C@H](C(=O)O)[C@@H](O)[C@H](O)[C@H]2O[C@@H]2O[C@H](C(=O)O)[C@@H](O)[C@H](O)[C@H]2O)CC[C@]2(C)[C@H]3C(=O)C=C4[C@@H]5C[C@@](C)(C(=O)O)CC[C@]5(C)CC[C@@]4(C)[C@]3(C)CC[C@@H]12 [Glycyrrhizic acid] | 0.80 | 30.70 | detection in brain tissues [2]: undetectable; detection in plasma [2]: detectable in plasma and at high levels |
| CC1(C)CC[C@]2(C(=O)O)CC[C@]3(C)C(=CC[C@@H]4[C@@]5(C)CC[C@H](O)[C@@](C)(CO)[C@@H]5CC[C@]43C)[C@@H]2C1 [Hederagenin] | 0.96 |  |  |
| COc1ccc([C@@H]2CC(=O)c3c(O)cc(O[C@@H]4O[C@H](CO[C@@H]5O[C@@H](C)[C@H](O)[C@@H](O)[C@H]5O)[C@@H](O)[C@H](O)[C@H]4O)cc3O2)cc1O [Hesperidin] | 0.82 | 32.75 | exposure in plasma and brain [2]: exposed in the plasma and brain; also recorded: absorbed into the bloodstream and distributed to brain tissues; time at which concentration in brain peaked [2]: 4 h |
| CC[C@H]1CN2CCc3c([nH]c4ccccc34)[C@H]2C[C@@H]1/C(=C\OC)C(=O)OC [Hirsutine] | 0.78 | 34.44 |  |
| CCCCCCCCCCCCCCC=CCCCC(=O)O [Icos-5-enoic acid] | 1.09 | 30.70 |  |
| Oc1ccc2c(c1)OC[C@H]1c3cc4c(cc3O[C@@H]21)OCO4 [Inermin] | 0.36 | 65.83 |  |
| Oc1ccc2c(c1)OC[C@H]1c3cc4c(cc3O[C@@H]21)OCO4 [Inermine] | 0.40 | 75.18 |  |
| CC(C)=CCOc1c2ccoc2cc2oc(=O)ccc12 [Isoimperatorin] | 0.66 | 45.46 |  |
| CC[C@H]1CN2CC[C@@]3(C(=O)Nc4ccccc43)[C@@H]2C[C@@H]1/C(=C\OC)C(=O)OC [Isorhyncophylline] | 0.33 | 47.31 |  |
| O=C1C[C@@H](c2ccc(O[C@@H]3O[C@H](CO)[C@@H](O)[C@H](O)[C@H]3O)cc2)Oc2cc(O)ccc21 [Liquiritin] | 0.61 | 58.81 | detection in brain tissues [2]: undetectable; detection in plasma [2]: detectable in plasma and at high levels |
| CN[C@@H](C)Cc1ccccc1 [MA, Methamphetamine hydrochloride] |  |  | maximum safe dose (SH-SY5Y cells): 100 µmol/L; viability at 48 h, 200 μmol·L^−1 [3]: < 90% |
| CCCCC/C=C\C/C=C\CCCCCCCC(=O)OCC [Mandenol] | 1.14 | 42.00 |  |
| CCCCCC=CCC=CCCCCCCCCCC(=O)OC [Methyl icosa-11,14-dienoate] | 1.10 | 39.67 |  |
| CC1(C)C=Cc2c(ccc([C@@H]3COc4cc(O)ccc4C3)c2O)O1 [Phaseolinisoflavan] | 0.46 | 32.01 |  |
| COc1c2ccoc2c(OCC=C(C)C)c2oc(=O)ccc12 [Phellopterin] | 0.48 | 40.19 |  |
| COc1c2ccoc2c(OCC=C(C)C)c2oc(=O)ccc12 [Phelloptorin] | 0.43 | 43.39 |  |
| CC(C)=CCc1c2ccoc2c(O)c2oc(=O)ccc12 [Prangenidin] | 0.50 | 36.31 |  |
| CC[C@H]1CN2CC[C@]3(C(=O)Nc4ccccc43)[C@@H]2C[C@@H]1/C(=C\OC)C(=O)OC [Rhynchophylline] | 0.38 | 41.82 | exposure in plasma and brain [2]: exposed in the plasma and brain; also recorded: absorbed into the bloodstream and distributed to brain tissues; time at which concentration in brain peaked [2]: 6 h |
| CC1(C)C=Cc2c(ccc3c2OC[C@H]2c4ccc(O)cc4O[C@@H]32)O1 [Shinpterocarpin] | 0.68 | 80.30 |  |
| CC[C@H](CC[C@@H](C)[C@H]1CC[C@H]2[C@@H]3CC=C4C[C@@H](O)CC[C@]4(C)[C@H]3CC[C@]12C)C(C)C [Sitosterol] | 0.87 |  |  |
| CC[C@H](/C=C/[C@@H](C)[C@H]1CC[C@H]2[C@@H]3CC=C4C[C@@H](O)CC[C@]4(C)[C@H]3CC[C@]12C)C(C)C [Stigmasterol] | 1.00 | 43.83 |  |
| COC(=O)C1=CO[C@@H](C)[C@@H]2CN3CCc4c([nH]c5ccccc45)[C@@H]3C[C@H]12 [Tetrahydroalstonine] | 0.33 | 32.42 |  |
| CC1(C)C=Cc2cc([C@@H]3CC(=O)c4ccc5c(c4O3)C=CC(C)(C)O5)ccc2O1 [Xambioona] | 0.52 | 54.85 |  |
| C=C[C@H]1CN2CCc3c([nH]c4ccccc34)[C@H]2C[C@@H]1/C(=C\OC)C(=O)OC [delta (sup 18)-Hirsutine] | 0.76 | 41.64 |  |
| Medicarpin | 0.53 | 49.22 |  |

Reference: publication PMC11634579, “Network pharmacology, experimental validation and pharmacokinetics integrated strategy to reveal pharmacological mechanism of goutengsan on methamphetamine dependence” (Frontiers in Pharmacology, 2024)
